The source of these data is patent US8163929B2, “Dihydropyridone amides as P2X7 modulators” (Roche Palo Alto LLC, priority 2008, dated 2012).

SMILES strings stand for the structures.

For the assay, the target named is T1, P2X7 (UniProt Q99572).
T1 sequence (Q99572 1-595): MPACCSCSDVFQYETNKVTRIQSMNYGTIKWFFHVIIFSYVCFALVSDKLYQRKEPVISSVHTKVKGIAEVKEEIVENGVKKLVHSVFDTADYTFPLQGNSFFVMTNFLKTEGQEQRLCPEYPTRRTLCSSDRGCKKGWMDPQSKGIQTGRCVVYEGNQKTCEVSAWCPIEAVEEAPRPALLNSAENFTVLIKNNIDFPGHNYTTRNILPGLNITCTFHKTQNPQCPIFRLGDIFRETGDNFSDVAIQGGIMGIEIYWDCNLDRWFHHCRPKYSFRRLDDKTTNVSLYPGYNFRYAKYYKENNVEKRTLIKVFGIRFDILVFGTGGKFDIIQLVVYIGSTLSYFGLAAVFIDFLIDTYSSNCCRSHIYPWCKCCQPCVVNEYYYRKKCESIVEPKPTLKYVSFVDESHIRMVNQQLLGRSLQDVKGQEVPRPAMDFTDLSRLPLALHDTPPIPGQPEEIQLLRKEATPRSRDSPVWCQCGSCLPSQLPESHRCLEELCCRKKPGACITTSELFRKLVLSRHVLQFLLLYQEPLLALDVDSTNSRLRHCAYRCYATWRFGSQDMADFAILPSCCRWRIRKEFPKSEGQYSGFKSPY
The assay can be described thus: P2X7 activity of Table 1. It counts as cell-based. As to conditions: pIC50 values for P2X7. In short, it runs like this: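 FLIPR calcium flux with fluo-3 in 1321N1 cells expressing human P2X7 and HEK293 cells expressing rat P2X7, in HBSS with 2 mM CaCl2 and 2.5 mM probenecid. Antagonist pre-incubated 20 min at room temperature, then BzATP added (100 μM human, 5 μM rat). Peak response over 5 min normalised to 5 μM ionomycin.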

Usually pIC50 stands for the negative decadic logarithm of the IC50, by convention in mol/L. A lower pIC50 goes with a high IC50.

As to `CCn1c(=O)cnn(-c2ccc(C)c(NC(=O)C3=CNC(=O)C[C@H]3c3ccc(F)cc3)c2)c1=O` [Compound 67, (S)-4-(4-Fluoro-phenyl)-6-oxo-1,4,5,6-tetrahydro-pyridine-3-carboxylic acid [5-(4-ethyl-3,5-dioxo-4,5-dihydro-3H-[1,2,4]triazin-2-yl)-2-methyl-phenyl]-amide], the pIC50 was found to be 7.575.
Turning to `Cc1ccc(-n2ncc(=O)n(C)c2=O)cc1NC(=O)C1=CN(C)C(=O)C[C@H]1c1ccc(F)cc1` [Compound 68, (S)-4-(4-Fluoro-phenyl)-1-methyl-6-oxo-1,4,5,6-tetrahydro-pyridine-3-carboxylic acid [2-methyl-5-(4-methyl-3,5-dioxo-4,5-dihydro-3H-[1,2,4]triazin-2-yl)-phenyl]-amide], the pIC50 is 7.01.
The compound `Cc1ccc(-c2cc(C)n(CCO)n2)cc1NC(=O)C1=CNC(=O)C[C@H]1c1cccc(F)c1` [Compound 69, (S)-4-(3-Fluoro-phenyl)-6-oxo-1,4,5,6-tetrahydro-pyridine-3-carboxylic acid {5-[1-(2-hydroxy-ethyl)-5-methyl-1H-pyrazol-3-yl]-2-methyl-phenyl}-amide] came in with a pIC50 of 7.92.
`Cc1ccc(-c2cc(C)n(CCO)n2)cc1NC(=O)C1=CN(C)C(=O)C[C@H]1c1cccc(F)c1` [Compound 70, (S)-4-(3-Fluoro-phenyl)-1-methyl-6-ox-1,4,5,6-tetrahydro-pyridine-3-carboxylic acid {5-[1-(2-hydroxy-ethyl)-5-methyl-1H-pyrazol-3-yl]-2-methyl-phenyl}-amide] registered a pIC50 of 7.72.
Compound `Cc1ccc(-c2ccnn(C)c2=O)cc1NC(=O)C1=CNC(=O)C[C@H]1c1ccc(F)cc1` [Compound 71, (S)-4-(4-Fluoro-phenyl)-6-oxo-1,4,5,6-tetrahydro-pyridine-3-carboxylic acid [2-methyl-5-(2-methyl-3-oxo-2,3-dihydro-pyridazin-4-yl)-phenyl]-amide] returned a pIC50 of 8.395.
With `Cc1ccc(-c2ccn[nH]c2=O)cc1NC(=O)C1=CN(C)C(=O)C[C@H]1c1ccc(F)cc1` [Compound 72, (S)-4-(4-Fluoro-phenyl)-1-methyl-6-oxo-1,4,5,6-tetrahydro-pyridine-3-carboxylic acid [2-methyl-5-(3-oxo-2,3-dihydro-pyridazin-4-yl)-phenyl]-amide] the figure was 7.8367; with `Cc1ccc(-c2cc(C)n(C[C@@H](C)O)n2)cc1NC(=O)C1=CN(C)C(=O)C[C@H]1c1ccc(F)cc1` [Compound 73, (S)-4-(4-Fluoro-phenyl)-1-methyl-6-oxo-1,4,5,6-tetrahydro-pyridine-3-carboxylic acid {5-[1-((R)-2-hydroxy-propyl)-5-methyl-1H-pyrazol-3-yl]-2-methyl-phenyl}-amide], 7.255.
The compound `Cc1ccc(-c2cc(C)n(C[C@H](C)O)n2)cc1NC(=O)C1=CN(C)C(=O)C[C@H]1c1ccc(F)cc1` [Compound 74, (S)-4-(4-Fluoro-phenyl)-1-methyl-6-oxo-1,4,5,6-tetrahydro-pyridine-3-carboxylic acid {5-[1-((S)-2-hydroxy-propyl)-5-methyl-1H-pyrazol-3-yl]-2-methyl-phenyl}-amide] gave a pIC50 of 7.47.
Turning to `COC[C@H](O)Cn1nc(-c2ccc(C)c(NC(=O)C3=CNC(=O)C[C@H]3c3ccc(F)cc3)c2)cc1C` [Compound 75, (S)-4-(4-Fluoro-phenyl)-6-oxo-1,4,5,6-tetrahydro-pyridine-3-carboxylic acid {5-[1-((R)-2-hydroxy-3-methoxy-propyl)-5-methyl-1H-pyrazol-3-yl]-2-methyl-phenyl}-amide], the pIC50 came out at 7.72.
In the case of `COC[C@H](O)Cn1nc(-c2ccc(C)c(NC(=O)C3=CN(C)C(=O)C[C@H]3c3ccc(F)cc3)c2)cc1C` [Compound 76, (S)-4-(4-Fluoro-phenyl)-1-methyl-6-oxo-1,4,5,6-tetrahydro-pyridine-3-carboxylic acid {5-[1-((R)-2-hydroxy-3-methoxy-propyl)-5-methyl-1H-pyrazol-3-yl]-2-methyl-phenyl}-amide], the pIC50 is listed as 7.45.
`COC[C@H](O)Cn1c(=O)cnn(-c2ccc(C)c(NC(=O)C3=CN(C)C(=O)C[C@H]3c3ccc(F)cc3)c2)c1=O` [Compound 77, (S)-4-(4-Fluoro-phenyl)-1-methyl-6-oxo-1,4,5,6-tetrahydro-pyridine-3-carboxylic acid {5-[4-((R)-2-hydroxy-3-methoxy-propyl)-3,5-dioxo-4,5-dihydro-3H-[1,2,4]triazin-2-yl]-2-methyl-phenyl}-amide]: the pIC50 was 7.5367.
`Cc1ccc(=O)n(-c2ccc(C)c(NC(=O)C3=CNC(=O)C[C@H]3c3ccc(F)cc3)c2)n1` [Compound 78, (S)-4-(4-Fluoro-phenyl)-6-oxo-1,4,5,6-tetrahydro-pyridine-3-carboxylic acid [2-methyl-5-(3-methyl-6-oxo-6H-pyridazin-1-yl)-phenyl]-amide]: the pIC50 was 7.31.
Compound `Cc1cncc(-c2ccc(C)c(NC(=O)C3=CNC(=O)C[C@H]3c3ccc(F)cc3)c2)n1` [Compound 79, (S)-4-(4-Fluoro-phenyl)-6-oxo-1,4,5,6-tetrahydro-pyridine-3-carboxylic acid [2-methyl-5-(6-methyl-pyrazin-2-yl)-phenyl]-amide] yielded a pIC50 of 6.58.
`Cc1ccnc(-c2ccc(C)c(NC(=O)C3=CNC(=O)C[C@H]3c3ccc(F)cc3)c2)n1` [Compound 80, (S)-4-(4-Fluoro-phenyl)-6-oxo-1,4,5,6-tetrahydro-pyridine-3-carboxylic acid [2-methyl-5-(4-methyl-pyrimidin-2-yl)-phenyl]-amide] came in with a pIC50 of 7.315.
The compound `Cc1ccc(-c2ccnn(C)c2=O)cc1NC(=O)C1=CN(C)C(=O)C[C@H]1c1ccc(F)cc1` [Compound 81, (S)-4-(4-Fluoro-phenyl)-1-methyl-6-oxo-1,4,5,6-tetrahydro-pyridine-3-carboxylic acid [2-methyl-5-(2-methyl-3-oxo-2,3-dihydro-pyridazin-4-yl)-phenyl]-amide] came in with a pIC50 of 7.94.
As for `Cc1ccc(-c2cncc(=O)[nH]2)cc1NC(=O)C1=CNC(=O)C[C@H]1c1ccc(F)cc1` [Compound 82, (S)-4-(4-Fluoro-phenyl)-6-oxo-1,4,5,6-tetrahydro-pyridine-3-carboxylic acid [2-methyl-5-(6-oxo-1,6-dihydro-pyrazin-2-yl)-phenyl]-amide], the pIC50 came out at 5.395.
With `Cc1ccc(-c2cc(C)n(CC(=O)O)n2)cc1NC(=O)C1=CNC(=O)C[C@H]1c1ccc(F)cc1` [Compound 83, [3-(3-{[(S)-4-(4-Fluoro-phenyl)-6-oxo-1,4,5,6-tetrahydro-pyridine-3-carbonyl]-amino}-4-methyl-phenyl)-5-methyl-pyrazol-1-yl]-acetic acid] the figure was 6.335.
On to `Cc1ccc(-c2ccn(CCO)n2)cc1NC(=O)C1=CNC(=O)C[C@H]1c1ccc(F)cc1` [Compound 84, (S)-4-(4-Fluoro-phenyl)-6-oxo-1,4,5,6-tetrahydro-pyridine-3-carboxylic acid {5-[1-(2-hydroxy-ethyl)-1H-pyrazol-3-yl]-2-methyl-phenyl}-amide], for which the pIC50 amounted to 7.53.
In turn, `Cc1ccc(-c2cc(C)n(CCO)n2)cc1NC(=O)C1=CNC(=O)CC1c1ccc(F)c(F)c1` (centres unmarked) [Compound 85, 4-(3,4-Difluoro-phenyl)-6-oxo-1,4,5,6-tetrahydro-pyridine-3-carboxylic acid {5-[1-(2-hydroxy-ethyl)-5-methyl-1H-pyrazol-3-yl]-2-methyl-phenyl}-amide] came in with a pIC50 of 7.375.
With `Cc1ccc(-c2ccnn(C)c2=O)cc1NC(=O)C1=CN(C)C(=O)C[C@H]1c1cccc(F)c1` [Compound 86, (S)-4-(3-Fluoro-phenyl)-1-methyl-6-oxo-1,4,5,6-tetrahydro-pyridine-3-carboxylic acid [2-methyl-5-(2-methyl-3-oxo-2,3-dihydro-pyridazin-4-yl)-phenyl]-amide], the pIC50 is reported as 7.62.
Compound `Cc1ccc(-c2ccn[nH]c2=O)cc1NC(=O)C1=CN(C)C(=O)C[C@H]1c1cccc(F)c1` [Compound 87, (S)-4-(3-Fluoro-phenyl)-1-methyl-6-oxo-1,4,5,6-tetrahydro-pyridine-3-carboxylic acid [2-methyl-5-(3-oxo-2,3-dihydro-pyridazin-4-yl)-phenyl]-amide] showed a pIC50 of 7.884.
`Cc1ccc(-n2ncccc2=O)cc1NC(=O)C1=CNC(=O)C[C@H]1c1cccc(F)c1` [Compound 89, (S)-4-(3-Fluoro-phenyl)-6-oxo-1,4,5,6-tetrahydro-pyridine-3-carboxylic acid [2-methyl-5-(6-oxo-6H-pyridazin-1-yl)-phenyl]-amide] had a pIC50 of 7.53.
`COC[C@H](O)Cn1nc(-c2ccc(C)c(NC(=O)C3=CN(C)C(=O)C[C@H]3c3cccc(F)c3)c2)cc1C` [Compound 90, (S)-4-(3-Fluoro-phenyl)-1-methyl-6-oxo-1,4,5,6-tetrahydro-pyridine-3-carboxylic acid {5-[1-((R)-2-hydroxy-3-methoxy-propyl)-5-methyl-1H-pyrazol-3-yl]-2-methyl-phenyl}-amide]: the pIC50 is 7.2.
